# According to patent US4818770A, “Prevention of a plant disease by specific inhibition of fungal polyamine biosynthesis” (priority 1986, dated 1989):
# Values joined by “and” are separate entries in the source; they are usually repeats but may differ in a detail not shown here. Equal entries are not always repeated. Where two headings read alike, the source gives them in different places.
# How the values were obtained:
# Uromyces phaseoli = assay: Bean rust lesions on unifoliolate leaves of Pinto bean sprayed before or after inoculation; assay type: in vivo
# [1] = tested on: bean plants (Phaseolus vulgaris cv Pinto); assay: Effect of sprays on growth and appearance of bean plants; assay type: in vivo; conditions: sprays 0.01, 0.1 and 1.0 mM
# Procedure: Unifoliolate leaves of 10-day-old bean seedlings were sprayed (400 ul per leaf) with DFMO or alpha-difluoromethylarginine (DFMA) at concentrations of 0.01-5 mM, before or after inoculation with uredospores of the bean rust, Uromyces phaseoli, Race 0. The inhibitor solutions were prepared in 0.01% Tween 20, with the pH adjusted to 7.0. Control plants without inhibitor were sprayed similarly and were allowed to dry before inoculation with the pathogen. After inoculation with rust uredospores (25 mg/100 ml of 0.01% Tween 20) all plants were placed in dew chambers (100% relative humidity) for 16 hours at 19° C. in total darkness. After exposures to inhibitors and uredospores, all plants were returned to the greenhouse and arranged randomly. Disease severity was evaluated 7 days after inoculation by counting foliar lesions. In control plants and those treated with low concentrations of DFMO, uredospores were collected randomly from each treatment to determine percent germination and pathogenicity. For determination of germination, spores were dusted onto Petri plates containing 10 mM 2-(N-morpholino)ethanesulfonic acid (Mes) at pH 7.0, 3 mM CaCl2, 2 mM MgSO4, and 1% purified agar, and incubated for 3 hr at 19° C. in the light.
# Verticillium dahliae [2] = assay: Radial mycelial growth of Verticillium dahliae in vitro; assay type: cell-based; conditions: Verticillium dahliae, read-out: inhibition of radial growth relative to that observed with DFMO
# Verticillium dahliae [3] = assay: Verticillium wilt symptoms in Bonny Best tomato after foliar spray; assay type: in vivo; conditions: concentrations up to 10 mM
# [4] = tested on: P. graminis f. sp. tritici; assay type: in vivo, Puccinia graminis f. sp. tritici
# [5] = tested on: P. recondita f. sp. tritici; assay type: in vivo, Puccinia recondita f. sp. tritici
# PA titers of bean leaves = assay: Polyamine titers in leaves of sprayed bean plants; assay type: in vivo, Phaseolus vulgaris; conditions: sprays 0.01, 0.1 and 1.0 mM; 1, 3 and 8 days later
# Procedure: PA analysis was performed on leaf samples collected from inhibitor-sprayed bean plants. Leaf samples were ground in prechilled mortars with 10% (w/v) HClO4 at a ratio of 200 mg fresh weight leaf per ml HClO4. Homogenates were centrifuged at 26,00 g for 20 minutes at 4° C. The clear supernatant fractions were used for dansylation according to a procedure previously described. Briefly, 0.4 ml of freshly prepared dansyl (Diaminonaphthylsulfonyl)-C1 (Sigma), 5 mg/ml in acetone, and 0.2 ml of saturated Na2 CO3 were added to 0.2 ml of the supernatant fraction. The dansylated PA were extracted with 0.25 ml benzene and the clear benzene layer was used for PA determinations by TLC on LK6D high resolution silica gel plates (Whatman). After development in chloroform:triethylamine (25:2 v/v) for about 1 hour and location by fluorescence under a UV lamp, the dansylpolyamine bands were scraped off, eluted in 4 ml of ethyl acetate and quantified with an Aminco-Bowman fluorimeter.
# The effect of DFMO and DFMA sprays (0.01, 0.1, and 1.0 mM) on PA titers was also examined. Unifoliolate leaves were sprayed in the usual way and examined 1 and 3 days later, while the first trifolioloate leaves, unexpanded ata the time of spray and themselves unsprayed, were examined 8 days later.
# [6] = tested on: Puccinia graminis fsp avenae; assay type: in vivo
# bean rust uredospores = assay: Germination and differentiation of bean rust uredospores in agar; assay type: cell-based, Uromyces phaseoli; conditions: for inhibition at 100 µM / inhibition at 500 µM / inhibition at 1000 µM / inhibition at 5000 µM: Uromyces phaseoli
# Erysiphe graminis = assay: Wheat powdery mildew infection, colonies per plant; conditions: concentrations up to 5 mM
# Procedure: With wheat powdery mildew (E. graminis) 10-day-old seedlings were sprayed with solutions of DFMA or DFMO from 0.01 to 5.0 mM before and after inoculation of the plants with conidia. Inoculation occurred naturally in the greenhouse by distributing infected plants among the experimental plants for 24 hours. Infection was evaluated 10 days after inoculation by counting mildew colonies.
# [7] = tested on: Colletotrichum lagenarium; assay: Infection of National Pickling cucumber plants by cucumber anthracnose
# [8] = postinoculation exposure, inhibitor 1.0 mM
# [9] = postinoculation exposure, inhibitor 5.0 mM
# [10] = preinoculation exposure, inhibitor 1.0 mM
# [11] = preinoculation exposure, inhibitor 5.0 mM
# [12] = read-out: Differentiation % Inhibiton
# [13] = read-out: Germination % Inhibition
smiles,measurement,setting,value
"N=C(N)NCCC[C@](N)(C(=O)O)C(F)F [DFMA, alpha-difluoromethylarginine]",reduction of bean rust infection,Uromyces phaseoli; even at 5.0 mM,ineffective
same,germination or pathogenicity of uredospores collected from treated plants,Uromyces phaseoli; plants treated with low concentrations,no decrease in germination or pathogenicity
same,Lesions per cm^2,Uromyces phaseoli; [8],56 ± 3 per cm^2
same,Lesions per leaf,Uromyces phaseoli; [8],2829 ± 242 per leaf
same,Lesions per cm^2,Uromyces phaseoli; [9],50 ± 2 per cm^2
same,Lesions per leaf,Uromyces phaseoli; [9],2195 ± 169 per leaf
same,Lesions per cm^2,Uromyces phaseoli; [10],51 ± 4 per cm^2
same,Lesions per leaf,Uromyces phaseoli; [10],3101 ± 217 per leaf
same,Lesions per cm^2,Uromyces phaseoli; [11],46 ± 4 per cm^2
same,Lesions per leaf,Uromyces phaseoli; [11],2928 ± 317 per leaf
same,growth of the bean plants,[1],no effect
same,inhibition at 500 µM,Verticillium dahliae [2],~50%
same,symptom severity and time of symptom expression,Verticillium dahliae [3],did not alter either symptom severity nor time of symptom expression
same,control of wheat stem rust,[4]; 0.01 to 1.0 mM,relatively ineffective
same,% control,"[4]; post-inoculation, 0.01 mM",27%
same,Uredia/plant,"[4]; post-inoculation, 0.01 mM",154 Uredia/plant
same,% control,"[4]; post-inoculation, 0.025 mM",36%
same,Uredia/plant,"[4]; post-inoculation, 0.025 mM",134 Uredia/plant
same,% control,"[4]; post-inoculation, 0.065 mM",29%
same,Uredia/plant,"[4]; post-inoculation, 0.065 mM",150 Uredia/plant
same,% control,"[4]; post-inoculation, 0.10 mM",28%
same,Uredia/plant,"[4]; post-inoculation, 0.10 mM",152 Uredia/plant
same,% control,"[4]; post-inoculation, 0.13 mM",42%
same,Uredia/plant,"[4]; post-inoculation, 0.13 mM",122 Uredia/plant
same,% control,"[4]; post-inoculation, 0.16 mM",42%
same,Uredia/plant,"[4]; post-inoculation, 0.16 mM",122 Uredia/plant
same,% control,"[4]; post-inoculation, 0.20 mM",41%
same,Uredia/plant,"[4]; post-inoculation, 0.20 mM",124 Uredia/plant
same,% control,"[4]; post-inoculation, 1.00 mM",40%
same,Uredia/plant,"[4]; post-inoculation, 1.00 mM",126 Uredia/plant
same,% control,"[4]; pre-inoculation, 0.01 mM",9%
same,Uredia/plant,"[4]; pre-inoculation, 0.01 mM",192 Uredia/plant
same,% control,"[4]; pre-inoculation, 0.025 mM",20%
same,Uredia/plant,"[4]; pre-inoculation, 0.025 mM",167 Uredia/plant
same,% control,"[4]; pre-inoculation, 0.065 mM",20%
same,Uredia/plant,"[4]; pre-inoculation, 0.065 mM",168 Uredia/plant
same,% control,"[4]; pre-inoculation, 0.10 mM",21%
same,Uredia/plant,"[4]; pre-inoculation, 0.10 mM",165 Uredia/plant
same,% control,"[4]; pre-inoculation, 0.13 mM",8%
same,Uredia/plant,"[4]; pre-inoculation, 0.13 mM",193 Uredia/plant
same,% control,"[4]; pre-inoculation, 0.16 mM",11%
same,Uredia/plant,"[4]; pre-inoculation, 0.16 mM",186 Uredia/plant
same,% control,"[4]; pre-inoculation, 0.20 mM",18%
same,Uredia/plant,"[4]; pre-inoculation, 0.20 mM",172 Uredia/plant
same,% control,"[4]; pre-inoculation, 1.00 mM",30%
same,Uredia/plant,"[4]; pre-inoculation, 1.00 mM",148 Uredia/plant
same,Uredia/plant,[5]; 0.01 mM,74 Uredia/plant and 49 Uredia/plant
same,Uredia/plant,[5]; 0.025 mM,62 Uredia/plant and 40 Uredia/plant
same,% control,[5]; 0.065 mM,32% and 54%
same,Uredia/plant,[5]; 0.065 mM,54 Uredia/plant and 37 Uredia/plant
same,% control,[5]; 0.10 mM,37% and 51%
same,Uredia/plant,[5]; 0.10 mM,50 Uredia/plant and 39 Uredia/plant
same,% control,[5]; 0.13 mM,34% and 47%
same,Uredia/plant,[5]; 0.13 mM,53 Uredia/plant and 42 Uredia/plant
same,% control,[5]; 0.16 mM,39% and 49%
same,Uredia/plant,[5]; 0.16 mM,49 Uredia/plant and 41 Uredia/plant
same,% control,[5]; 0.20 mM,46% and 47%
same,Uredia/plant,[5]; 0.20 mM,43 Uredia/plant and 42 Uredia/plant
same,% control,[5]; 1.00 mM,57% and 77%
same,Uredia/plant,[5]; 1.00 mM,34 Uredia/plant and 18 Uredia/plant
same,PA levels in treated leaves,PA titers of bean leaves,no significant reductions
same,Percent control,[6]; 0.01 mM,40.4%
same,Percent control,[6]; 0.025 mM,32.6%
same,Percent control,[6]; 0.065 mM,41.9%
same,Percent control,[6]; 0.10 mM,53.1%
same,Percent control,[6]; 0.13 mM,61.5%
same,Percent control,[6]; 0.16 mM,57.0%
same,Percent control,[6]; 0.20 mM,63.8%
same,Percent control,[6]; 1.00 mM,86.0%
same,effectiveness against oat stem rust compared with DFMO,[6]; in vivo,nearly as effective as DFMO
same,Differentiation %,bean rust uredospores; 0.1 mM,46%
same,Germination %,bean rust uredospores; 0.1 mM,36%
same,Differentiation %,bean rust uredospores; 0.5 mM,30%
same,Germination %,bean rust uredospores; 0.5 mM,36%
same,Differentiation %,bean rust uredospores; 1.0 mM,23%
same,Germination %,bean rust uredospores; 1.0 mM,31%
same,Differentiation %,bean rust uredospores; 5.0 mM,18%
same,Germination %,bean rust uredospores; 5.0 mM,26%
same,inhibition at 100 µM,bean rust uredospores; [12],22%
same,inhibition at 500 µM,bean rust uredospores; [12],49%
same,inhibition at 1000 µM,bean rust uredospores; [12],61%
same,inhibition at 5000 µM,bean rust uredospores; [12],69%
same,inhibition at 100 µM,bean rust uredospores; [13],14%
same,inhibition at 500 µM,bean rust uredospores; [13],14%
same,inhibition at 1000 µM,bean rust uredospores; [13],26%
same,inhibition at 5000 µM,bean rust uredospores; [13],38%
same,control of wheat powdery mildew infection,Erysiphe graminis,ineffective
same,Lesions per plant,[7]; 1.0 mM,73 per plant
same,Percent control,[7]; 1.0 mM,10%
same,Lesions per plant,[7]; 5.0 mM,71 per plant
same,Percent control,[7]; 5.0 mM,12%
same,Lesions per plant,[7]; 10.0 mM,73 per plant
same,Percent control,[7]; 10.0 mM,10%
